# Results as given in ChEMBL document CHEMBL3792297, “Studies on phenothiazines: New microtubule-interacting compounds with phenothiazine A-ring as potent antineoplastic agents” (Bioorg Med Chem, 2016).
# pIC50: −log10 of the molar value.
# How the values were obtained:
# [1] = system: MCF7; assay: Growth inhibition of human MCF7 cells after 48 hrs by SRB assay; type: functional; settings: MCF7, 48 h
# [2] = Growth inhibition of human NCI-ADR-RES cells after 48 hrs by SRB assay; type: functional
# [3] = Growth inhibition of human Hs 578T cells at 10 uM after 48 hrs by SRB assay relative to control; type: functional; settings: read-out: GI
# [4] = Growth inhibition of human OVCAR8 cells at 10 uM after 48 hrs by SRB assay relative to control; type: functional; settings: OVCAR-8, 48 h, read-out: GI
# [5] = Growth inhibition of human OVCAR3 cells after 48 hrs by SRB assay; type: functional; settings: OVCAR-3, 48 h
# [6] = Growth inhibition of human Hs 578T cells after 48 hrs by SRB assay; type: functional
# [7] = system: T47D; assay: Growth inhibition of human T47D cells at 10 uM after 48 hrs by SRB assay relative to control; type: functional; settings: read-out: GI
# [8] = system: MDA-MB-435; assay: Growth inhibition of human MDA-MB-435 cells after 48 hrs by SRB assay; type: functional; settings: MDA-MB-435, 48 h
# [9] = Growth inhibition of human RPMI8226 cells at 10 uM after 48 hrs by SRB assay relative to control; type: functional; settings: RPMI-8226, 48 h, read-out: GI
# [10] = Growth inhibition of human SNB75 cells at 10 uM after 48 hrs by SRB assay relative to control; type: functional; settings: SNB-75, 48 h, read-out: GI
# [11] = Inhibition of sheep brain tubulin polymerization by DAPI staining-based fluorimetric method; design: species or system Ovis aries
# [12] = system: SN12C; assay: Growth inhibition of human SN12C cells at 10 uM after 48 hrs by SRB assay relative to control; type: functional; settings: read-out: GI
# [13] = Growth inhibition of human SKOV3 cells after 48 hrs by SRB assay; type: functional; settings: SK-OV-3, 48 h
# [14] = system: U-251; assay: Growth inhibition of human U251 cells at 10 uM after 48 hrs by SRB assay relative to control; type: functional; settings: U-251, 48 h, read-out: GI
# [15] = Growth inhibition of human Caki1 cells after 48 hrs by SRB assay; type: functional; settings: CAKI-1, 48 h
# [16] = Growth inhibition of human HCT15 cells after 48 hrs by SRB assay; type: functional; settings: HCT-15, 48 h
# [17] = organism: Ovis aries; assay: Inhibition of sheep brain tubulin polymerization at 100 uM by DAPI staining-based fluorimetric method
# [18] = system: M14; assay: Growth inhibition of human M14 cells after 48 hrs by SRB assay; type: functional; settings: M14, 48 h
# [19] = system: SK-MEL-5; assay: Growth inhibition of human SK-MEL-5 cells after 48 hrs by SRB assay; type: functional; settings: SK-MEL-5, 48 h
# [20] = Growth inhibition of human UO31 cells at 10 uM after 48 hrs by SRB assay relative to control; type: functional; settings: UO-31, 48 h, read-out: GI
# [21] = Growth inhibition of human HCC2998 cells after 48 hrs by SRB assay; type: functional; settings: HCC 2998, 48 h
# [22] = Growth inhibition of human HCT116 cells after 48 hrs by SRB assay; type: functional; settings: HCT-116, 48 h
# [23] = Growth inhibition of human RXF393 cells at 10 uM after 48 hrs by SRB assay relative to control; type: functional; settings: RXF 393, 48 h, read-out: GI
# [24] = Growth inhibition of human SF539 cells after 48 hrs by SRB assay; type: functional; settings: SF-539, 48 h
# [25] = system: SR; assay: Growth inhibition of human SR cells after 48 hrs by SRB assay; type: functional
# [26] = system: M14; assay: Growth inhibition of human M14 cells at 10 uM after 48 hrs by SRB assay relative to control; type: functional; settings: M14, 48 h, read-out: GI
# [27] = system: ACHN; assay: Growth inhibition of human ACHN cells at 10 uM after 48 hrs by SRB assay relative to control; type: functional; settings: read-out: GI
# [28] = Growth inhibition of human SF295 cells at 10 uM after 48 hrs by SRB assay relative to control; type: functional; settings: SF-295, 48 h, read-out: GI
# [29] = Growth inhibition of human COLO205 cells after 48 hrs by SRB assay; type: functional; settings: COLO 205, 48 h
# [30] = Growth inhibition of human LOXIMVI cells at 10 uM after 48 hrs by SRB assay relative to control; type: functional; settings: LOX IMVI, read-out: GI
# [31] = system: NCI-H522; assay: Growth inhibition of human NCI-H522 cells after 48 hrs by SRB assay; type: functional; settings: NCI-H522, 48 h
# [32] = Growth inhibition of human NCI-ADR-RES cells at 10 uM after 48 hrs by SRB assay relative to control; type: functional; settings: read-out: GI
# [33] = system: K562; assay: Growth inhibition of human K562 cells after 48 hrs by SRB assay; type: functional; settings: K562, 48 h
# [34] = Growth inhibition of human OVCAR5 cells after 48 hrs by SRB assay; type: functional; settings: OVCAR-5, 48 h
# [35] = Growth inhibition of human SF295 cells after 48 hrs by SRB assay; type: functional; settings: SF-295, 48 h
# [36] = system: SK-MEL-2; assay: Growth inhibition of human SK-MEL-2 cells after 48 hrs by SRB assay; type: functional; settings: SK-MEL-2, 48 h
# [37] = Growth inhibition of human PC3 cells after 48 hrs by SRB assay; type: functional; settings: PC-3, 48 h
# [38] = Growth inhibition of human MOLT4 cells at 10 uM after 48 hrs by SRB assay relative to control; type: functional; settings: MOLT-4, 48 h, read-out: GI
# [39] = Growth inhibition of human UO31 cells after 48 hrs by SRB assay; type: functional; settings: UO-31, 48 h
# [40] = Growth inhibition of human HOP62 cells at 10 uM after 48 hrs by SRB assay relative to control; type: functional; settings: HOP-62, 48 h, read-out: GI
# [41] = system: Malme-3M; assay: Growth inhibition of human MALME-3M cells at 10 uM after 48 hrs by SRB assay relative to control; type: functional; settings: read-out: GI
# [42] = Growth inhibition of human SF268 cells at 10 uM after 48 hrs by SRB assay relative to control; type: functional; settings: SF-268, 48 h, read-out: GI
# [43] = Growth inhibition of human OVCAR8 cells after 48 hrs by SRB assay; type: functional; settings: OVCAR-8, 48 h
# [44] = system: SK-MEL-2; assay: Growth inhibition of human SK-MEL-2 cells at 10 uM after 48 hrs by SRB assay relative to control; type: functional; settings: SK-MEL-2, 48 h, read-out: GI
# [45] = system: A498; assay: Growth inhibition of human A498 cells after 48 hrs by SRB assay; type: functional; settings: A498, 48 h
# [46] = Growth inhibition of human DU145 cells at 10 uM after 48 hrs by SRB assay relative to control; type: functional; settings: DU-145, 48 h, read-out: GI
# [47] = Growth inhibition of human HCC2998 cells at 10 uM after 48 hrs by SRB assay relative to control; type: functional; settings: HCC 2998, 48 h, read-out: GI
# [48] = Growth inhibition of human OVCAR3 cells at 10 uM after 48 hrs by SRB assay relative to control; type: functional; settings: OVCAR-3, 48 h, read-out: GI
smiles,measurement,setting,value
COc1ccc(C(=O)N2c3ccccc3Sc3ccccc32)c(C(F)(F)F)c1,GI50,[1],411 nM
same,GI50,[2],370 nM
same,inhibition of growth at 10 µM,[3],76%
same,inhibition of growth at 10 µM,[4],85%
same,GI50,[5],332 nM
same,GI50,[6],472 nM
same,inhibition of growth at 10 µM,[7],48%
same,GI50,[8],176 nM
same,inhibition of growth at 10 µM,[9],86%
same,inhibition of growth at 10 µM,[10],71%
same,pIC50,[11],4.92
same,inhibition of growth at 10 µM,[12],60%
same,GI50,[13],794 nM
same,inhibition of growth at 10 µM,[14],81%
same,GI50,[15],692 nM
same,GI50,[16],405 nM
same,inhibition,[17],80%
same,GI50,[18],343 nM
same,GI50,[19],692 nM
same,inhibition of growth at 10 µM,[20],60%
same,GI50,[21],467 nM
same,GI50,[22],505 nM
same,inhibition of growth at 10 µM,[23],85%
same,GI50,[24],270 nM
same,GI50,[25],312 nM
same,inhibition of growth at 10 µM,[26],98%
same,inhibition of growth at 10 µM,[27],68%
same,inhibition of growth at 10 µM,[28],95%
same,GI50,[29],319 nM
same,inhibition of growth at 10 µM,[30],83%
same,GI50,[31],320 nM
same,inhibition of growth at 10 µM,[32],97%
same,GI50,[33],349 nM
same,GI50,[34],1610 nM
same,GI50,[35],372 nM
same,GI50,[36],677 nM
same,GI50,[37],426 nM
same,inhibition of growth at 10 µM,[38],85%
same,GI50,[39],2620 nM
same,inhibition of growth at 10 µM,[40],57%
same,inhibition of growth at 10 µM,[41],40%
same,inhibition of growth at 10 µM,[42],65%
same,GI50,[43],592 nM
same,inhibition of growth at 10 µM,[44],53%
same,GI50,[45],282 nM
same,inhibition of growth at 10 µM,[46],86%
same,inhibition of growth at 10 µM,[47],74%
same,inhibition of growth at 10 µM,[48],100%
O=C(c1ccc2c(c1)Sc1ccccc1N2)c1c[nH]c2ccccc12,GI50,[1],312 nM
same,GI50,[2],317 nM
same,inhibition of growth at 10 µM,[3],100%
same,inhibition of growth at 10 µM,[4],77%
same,GI50,[5],360 nM
same,GI50,[6],239 nM
same,inhibition of growth at 10 µM,[7],72%
same,GI50,[8],98 nM
same,inhibition of growth at 10 µM,[9],56%
same,inhibition of growth at 10 µM,[10],100%
same,pIC50,[11],4.41
same,inhibition of growth at 10 µM,[12],57%
same,GI50,[13],380 nM
same,inhibition of growth at 10 µM,[14],83%
same,GI50,[15],359 nM
same,GI50,[16],408 nM
same,inhibition,[17],66%
same,GI50,[18],319 nM
same,GI50,[19],452 nM
same,inhibition of growth at 10 µM,[20],58%
same,GI50,[21],876 nM
same,GI50,[22],378 nM
same,inhibition of growth at 10 µM,[23],91%
same,GI50,[24],258 nM
same,GI50,[25],173 nM
same,inhibition of growth at 10 µM,[26],86%
same,inhibition of growth at 10 µM,[27],45%
same,inhibition of growth at 10 µM,[28],96%
same,GI50,[29],285 nM
same,inhibition of growth at 10 µM,[30],85%
same,GI50,[31],338 nM
same,inhibition of growth at 10 µM,[32],100%
same,GI50,[33],310 nM
same,GI50,[34],565 nM
same,GI50,[35],314 nM
same,GI50,[36],309 nM
same,GI50,[37],544 nM
same,inhibition of growth at 10 µM,[38],73%
same,GI50,[39],510 nM
same,inhibition of growth at 10 µM,[40],61%
same,inhibition of growth at 10 µM,[41],49%
same,inhibition of growth at 10 µM,[42],45%
same,GI50,[43],556 nM
same,inhibition of growth at 10 µM,[44],94%
same,GI50,[45],172 nM
same,inhibition of growth at 10 µM,[46],91%
same,inhibition of growth at 10 µM,[47],64%
same,inhibition of growth at 10 µM,[48],100%
